Results taken from PubChem BioAssay (NCI).
Where “and” joins values, the source holds several entries; their conditions need not be identical. Equal entries are not always repeated.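 All cell lines were grown in 96-well plates and treated with compound for 48 hours. The concentration for 50% growth inhibition is given as GI50. The concentration for full growth arrest is given as TGI.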

Tests used:
Experiment in all cases: growth of human tumour cells (NCI), 48 h
M14 melanoma = system: M14 melanoma
NCI/ADR-RES ovarian = system: NCI/ADR-RES ovarian
HOP-62 NSCLC = system: HOP-62 NSCLC
MALME-3M melanoma = system: MALME-3M melanoma
UO-31 renal = system: UO-31 renal
RXF 393 renal = system: RXF 393 renal
SK-MEL-28 melanoma = system: SK-MEL-28 melanoma
NCI-H460 lung = system: NCI-H460 lung
U251 CNS = system: U251 CNS
SR leukemia = system: SR leukemia

SMILES	TGI (M14 melanoma) [µM]	TGI (NCI/ADR-RES ovarian) [µM]	TGI (HOP-62 NSCLC)	TGI (MALME-3M melanoma) [µM]	TGI (UO-31 renal)	TGI (RXF 393 renal)	TGI (SK-MEL-28 melanoma)	TGI (NCI-H460 lung)	TGI (U251 CNS)	TGI (SR leukemia) [µM]	GI50 (SR leukemia) [µM]	GI50 (NCI/ADR-RES ovarian)	GI50 (HOP-62 NSCLC) [µM]	GI50 (UO-31 renal) [µM]	GI50 (SK-MEL-28 melanoma) [µM]	GI50 (MALME-3M melanoma) [µM]	GI50 (RXF 393 renal) [µM]	GI50 (NCI-H460 lung) [µM]	GI50 (U251 CNS) [µM]
O=C(NNC(=O)c1ccncc1)C(=O)Nc1cc(Cl)c(Cl)cc1Cl	> 100	> 100	> 100 µM	> 100	> 100 µM	> 100 µM	> 100 µM	> 100 µM	> 100 µM										
Cc1c(C(=O)O)sc2nc[nH]c(=O)c12	> 100	> 100	> 100 µM	> 100	> 100 µM	> 100 µM	> 100 µM	> 100 µM	> 100 µM										
O=C(O)c1c(CC(Cc2ccccc2)C(=O)O)ccc2c1CCC2 (configuration not stated)		> 100	> 100 µM	> 100	> 100 µM	> 100 µM	> 100 µM	> 100 µM	> 100 µM	> 100									
COc1ccc(-c2nc(-c3cnccn3)n(C/C=C/c3ccccc3)n2)cc1	> 100	> 100	60.3 µM		> 100 µM		> 100 µM	> 100 µM	> 100 µM	> 100									
C/C(N=NS(=O)(=O)c1c(C)cc(C)cc1C)=C1\C=CC=CN1O	> 100		> 100 µM		> 100 µM		> 100 µM	> 100 µM	> 100 µM	> 100									
CC1(C)CC(=O)C2=C(C1)NC(=S)C(C#N)C2c1ccccc1 (configuration not stated)	> 100	> 100	> 100 µM	> 100	> 100 µM	> 100 µM	> 100 µM	> 100 µM	> 100 µM										
O=c1[nH]c(=S)[nH]c2c1CCCN2	> 100		> 100 µM	> 100	> 100 µM	> 100 µM	> 100 µM		> 100 µM	> 100									
COc1cccc(C2C(C#N)=C(N)Oc3cc(OCCCCCC[P+](c4ccccc4)(c4ccccc4)c4ccccc4)ccc32)c1 (configuration not stated)		78.3	4.16 µM		4.69 µM		1.69 µM			1.92	0.36	11.9 µM	1.62	1.91	0.477				
CCC1OC2(C)CC(C#N)(C#N)C1(C#N)C(=N)O2 (configuration not stated)	> 100			> 100	> 100 µM	> 100 µM	> 100 µM		> 100 µM										
O=Cn1c2ccccc2c2ccccc21	> 100		> 100 µM	> 100	> 100 µM	> 100 µM	> 100 µM	> 100 µM	> 100 µM	> 100									
C/C(=N/NC(N)=S)C(CN1CCOCC1)C(C1=C(O)c2ccccc2OC1)c1ccccc1 (configuration not stated)	> 100			> 100	> 100 µM	> 100 µM		> 100 µM	> 100 µM	> 100									
Cc1c2oc(=O)c(C#N)cc2c2ccccn12	> 100	> 100		> 100	> 100 µM	> 100 µM	> 100 µM	> 100 µM	> 100 µM	> 100									
CNCC(SC)c1ccc(O)c(O)c1 (configuration not stated)	> 100	> 100	> 100 µM	32.4	> 100 µM	> 100 µM	> 100 µM	33.2 µM	> 100 µM										
CC(C)=CC(=O)OC1C2C(C)=CC(=O)C(O)C2(C)C2C3(O)OCC24C(CC(=O)OC14)C(C)C3O (configuration not stated)	0.00826		0.0504 µM and 0.0103 µM and 0.0948 µM	0.0136	0.545 µM and 4.78 µM and 1.03 µM	0.0732 µM and 0.131 µM	0.0175 µM and 0.0363 µM	0.0298 µM and 0.0334 µM	0.0192 µM and 0.0314 µM			6.65 µM and 2.24 µM	0.0315	0.829	0.02	0.00475	0.0339	0.00788	0.02
O=S1(=O)N=C(SCc2c[nH]c3ccccc23)N(c2ccccc2)c2ccncc21	> 100	> 100	> 100 µM	> 100	50 µM		> 100 µM	> 100 µM	> 100 µM	> 100									
CCOC(=O)c1cnc2n(c1=O)[C@H]1CCCC[C@@H]1N2	> 100	> 100		> 100	> 100 µM		> 100 µM	> 100 µM	> 100 µM										
NCCCNCCSP(=O)(O)O		> 750	> 750 µM	> 726	> 750 µM	> 750 µM	> 750 µM	> 750 µM	> 750 µM										
Oc1c(NCn2nc(CCCCCCCCc3nn(CNc4ccc5ccccc5c4O)c(=S)o3)oc2=S)ccc2ccccc12	> 100	> 100	> 100 µM	> 100	> 100 µM	> 100 µM	> 100 µM	> 100 µM	> 100 µM										
COC(=O)CCC(NC(=S)N/N=C(\C)c1cccs1)C(=O)OC (configuration not stated)	> 100		> 100 µM	> 100	> 100 µM	> 100 µM	> 100 µM	> 100 µM	> 100 µM										
C[C@@H]1C[C@@H]2OC(=O)[C@]3(C)[C@H]2[C@@H](OC3(C)O)[C@]2(C)C(=O)C=C[C@@H]12 (some centres not stated)	41.8	> 100	> 100 µM	30.7	> 100 µM	46 µM	45 µM		> 100 µM	28.5									
C=CC(C)(C)/C(=C\CO[Si](C(C)C)(C(C)C)C(C)C)C(=O)N(C)c1ccccc1I	33.6	37.6	35.8 µM		25.9 µM	24.5 µM	29.4 µM	28.1 µM	25 µM	27.7									
Nc1ccnc2c1ncn2[C@H]1C[C@H](O)[C@@H](CO)O1	> 100	> 100	> 100 µM		> 100 µM	> 100 µM	> 100 µM	> 100 µM	> 100 µM	> 100									
Cc1noc(-c2ccc(C(=O)O)[nH]2)c1Br	> 100	> 100	77.3 µM	> 100	> 100 µM	> 100 µM	> 100 µM	> 100 µM	> 100 µM										
